For experiment [1], the system named is Trichophyton mentagrophytes. Kind of experiment: anti-fungal growth inhibition, T. mentagrophytes. The format is cell-based. As to conditions: Trichophyton mentagrophytes, 168 h, T. mentagraphytes, one week, 30° C., OD 510 nm; for inhibition at 25 µM: read-out: Inhibition rate (25 μM); for inhibition at 50 µM: read-out: Inhibition rate (50 μM); for inhibition at 100 µM: read-out: Inhibition rate (100 μM). As for the experimental part: (§1) Evaluation of anti-fungal activity. In a single well of the 96-well microplate, 10 μL of the testing compound is added into 190 μL of growth medium (Difco™ YM) containing an overnight culture of Trichophyton rubrum or Trichophyton mentagrophytes at a density of approximately 5×10^5 CFU. The testing compounds include dihydro-resveratrol and DR1 to DR11. Wells incubated with 10 μL 0.5% DMSO only (i.e. no testing compound) are served as the experimental control of fungal growth whilst those incubated with growth medium only (i.e. no fungi) are served as the negative control. […] The percentage of growth inhibition of T. mentagrophytes by the different concentrations of testing compounds is shown in Table 10 whilst the percentage of growth inhibition of T. rubrum is shown in Table 11. The images of T. mentagrophytes culture are captured post treatment of dihydro-resveratrol (100 μM) and DR8 (100 μM) when compared to the growth of experimental control and negative control (FIG. 30).

Another experiment deals with Trichophyton rubrum. Kind of experiment: anti-fungal growth inhibition, T. rubrum. The format is cell-based. The conditions noted are these: Trichophyton rubrum, 168 h, T. rubrum, one week, 30° C., OD 510 nm; for inhibition at 25 µM: read-out: Inhibition rate (25 μM); for inhibition at 50 µM: read-out: Inhibition rate (50 μM); for inhibition at 100 µM: read-out: Inhibition rate (100 μM). The protocol:
as §1

The test system of the next experiment is Streptococcus sobrinus. Kind of experiment: anti-bacterial growth inhibition, S. sobrinus. The format is cell-based. The conditions noted are these: Streptococcus sobrinus, S. sobrinus, 10 hours, 30° C., OD 600 nm; for inhibition at 25 µM: read-out: Inhibition rate (25 μM); for inhibition at 50 µM: read-out: Inhibition rate (50 μM); for inhibition at 100 µM: read-out: Inhibition rate (100 μM). As for the experimental part:
(§2) Evaluation of anti-bacterial activity. In a single well of the 96-well microplate, 10 μL of the testing compound is added into 190 μL of growth medium growth medium (BBL™ Brain Heart Infusion) containing an overnight culture of Streptococcus mutans or Streptococcus sobrinus at a density of approximately 5×10^5 CFU. The testing compounds include dihydro-resveratrol and DR1 to DR11. Wells incubated with 10 μL 0.5% DMSO only (i.e. no testing compound) are served as the experimental control of bacterial growth whilst those incubated with growth medium only (i.e. no bacteria) are served as the negative control. […] The percentage of growth inhibition of S. mutans by the different concentrations of testing compounds is shown in Table 12 whereas the percentage of growth inhibition of S. sobrinus is shown in Table 13. The images of S. mutans culture are captured post treatment of dihydro-resveratrol (100 μM) and DR8 (100 μM) when compared to the growth of experimental control and negative control (FIG. 31).

Experiment [2] in a line: ABTS radical decolorization assay (antioxidant capacity). The format is biochemical. The conditions noted are these: 15 min, 734 nm.
A further experiment has as its system Streptococcus mutans. Kind of experiment: anti-bacterial growth inhibition, S. mutans. The format is cell-based. As to conditions: Streptococcus mutans, S. mutans, 10 hours, 30° C., OD 600 nm; for inhibition at 25 µM: read-out: Inhibition rate (25 μM); for inhibition at 50 µM: read-out: Inhibition rate (50 μM); for inhibition at 100 µM: read-out: Inhibition rate (100 μM). As for the experimental part:
as §2

The results in this text go back to US10351500B2, “Method of using of dihydro-resveratrol or its stilbenoid derivatives and/or chemical variants as antimicrobial agents” (Hong Kong Baptist University, priority 2015, dated 2019).

Regarding `C=CCOc1ccc(CCc2cc(OCC=C)cc(OCC=C)c2)cc1` [DR3], the inhibition (commonly the share of the control response that was lost under treatment) at 25 µM in experiment [1] was found to be 4.64%; with Trichophyton rubrum, 4.55%; with Streptococcus sobrinus, 11.7%; with Streptococcus mutans it was 4.18%. The inhibition at 50 µM in experiment [1] is 4.77%; in the experiment on Trichophyton rubrum, 4.25%; in the experiment on Streptococcus sobrinus, 24.2%; in the experiment on Streptococcus mutans, 2.61%. Moreover, the inhibition at 100 µM is 20.1% in experiment [1], 22.3% in the experiment with Trichophyton rubrum, 21.1% with Streptococcus sobrinus and 7.05% with Streptococcus mutans. Further, the “Trolox equivalent (mg), antioxidant capacity” value (from here on “Trolox equivalent (mg)”) in experiment [2] is 119.325 mg.

In the case of `O=C(Oc1ccc(CCc2cc(OC(=O)C3CCCC3)cc(OC(=O)C3CCCC3)c2)cc1)C1CCCC1` [DR9], the inhibition at 25 µM in experiment [1] is 2.19%; with Trichophyton rubrum, 7.05%; in the experiment with Streptococcus sobrinus, 14.3%; in the experiment on Streptococcus mutans, 0.68%. Also, the inhibition at 50 µM in experiment [1] is 14.7%; in the experiment with Trichophyton rubrum, 2.57%; with Streptococcus sobrinus, 0.13%; in the experiment on Streptococcus mutans, 6.36%. Also, the inhibition at 100 µM in experiment [1] stood at 25.9%; in the experiment on Trichophyton rubrum, 1.5%; with Streptococcus sobrinus it was 9.87%; in the experiment on Streptococcus mutans, 8.39%. Also, the “Trolox equivalent (mg)” value in experiment [2] is 0 mg.

For `CCCOc1ccc(CCc2cc(OCCC)cc(OCCC)c2)cc1` [DR2], the inhibition at 25 µM in experiment [1] turned out to be 4.72%; in the experiment with Trichophyton rubrum, 14.1%; in the experiment with Streptococcus sobrinus, 6.33%; with Streptococcus mutans, 0.04%. The inhibition at 50 µM in experiment [1] worked out at 9.81%; in the experiment on Trichophyton rubrum it was 18.3%; with Streptococcus sobrinus, 19.9%; in the experiment on Streptococcus mutans, 3.62%. Further, the inhibition at 100 µM in experiment [1] came out at 33.7%; in the experiment on Trichophyton rubrum it was 37.8%; in the experiment on Streptococcus sobrinus, 19%; with Streptococcus mutans it was 3.65%. Also, in experiment [2], the “Trolox equivalent (mg)” value came out at 30.178 mg.

Consider `O=C(Oc1ccc(CCc2cc(OC(=O)c3ccc(Cl)cc3)cc(OC(=O)c3ccc(Cl)cc3)c2)cc1)c1ccc(Cl)cc1` [DR5], for which the inhibition at 25 µM is 3.01% in experiment [1], 0.71% in the experiment with Trichophyton rubrum, 12.2% in the experiment with Streptococcus sobrinus and 2.67% in the experiment with Streptococcus mutans. The inhibition at 50 µM in experiment [1] was 6.93%; in the experiment on Trichophyton rubrum, 4.25%; in the experiment with Streptococcus sobrinus, 26.2%; with Streptococcus mutans, 8.35%. The inhibition at 100 µM in experiment [1] stood at 14.1%; with Trichophyton rubrum, 5.78%; in the experiment on Streptococcus sobrinus, 18.6%; with Streptococcus mutans, 2.22%. Besides, in experiment [2], the “Trolox equivalent (mg)” value was 0 mg.

As for `CCOC(=O)COc1ccc(CCc2cc(OCC(=O)OCC)cc(OCC(=O)OCC)c2)cc1` [DR1], the inhibition at 25 µM came out at 4.33% in experiment [1], 3.25% with Trichophyton rubrum, 9.96% in the experiment on Streptococcus sobrinus and 2.31% in the experiment with Streptococcus mutans. The inhibition at 50 µM in experiment [1] turned out to be 11.2%; in the experiment with Trichophyton rubrum, 1.15%; with Streptococcus sobrinus, 27.7%; with Streptococcus mutans, 8.55%. Besides, the inhibition at 100 µM worked out at 36.4% in experiment [1], 22.6% with Trichophyton rubrum, 14.2% in the experiment on Streptococcus sobrinus and 4.78% in the experiment with Streptococcus mutans. Moreover, in experiment [2], the “Trolox equivalent (mg)” value came out at 105.736 mg.

With `CCCC(=O)Oc1ccc(CCc2cc(OC(=O)CCC)cc(OC(=O)CCC)c2)cc1` [DR4], the inhibition at 25 µM is 6.03% in experiment [1], 11.2% in the experiment with Trichophyton rubrum, 7.35% in the experiment on Streptococcus sobrinus and 6.64% with Streptococcus mutans. Also, the inhibition at 50 µM in experiment [1] was found to be 10.4%; with Trichophyton rubrum, 16.6%; with Streptococcus sobrinus, 20.6%; in the experiment with Streptococcus mutans, 3.99%. Moreover, the inhibition at 100 µM in experiment [1] was determined as 32.6%; in the experiment on Trichophyton rubrum it was 36.1%; with Streptococcus sobrinus, 18.1%; in the experiment with Streptococcus mutans, 6.35%. In experiment [2], the “Trolox equivalent (mg)” value came to 94.277 mg.
